From PMC7725506, “Functional Diversification of SRSF Protein Kinase to Control Ubiquitin-Dependent Neurodevelopmental Signaling” (Developmental Cell, 2020)

What was measured:
[1] = tested on: Foxp1 exon 16-16b alternative splicing switch; assay: Foxp1 exon 16-16b incorporation in mESCs by quantitative RT-PCR; type: cell-based, mouse; conditions: 1 μM, 8 h
Protocol: SRSF phosphorylation, SRPK1, SRPK2, and ERK1/2 levels were determined by immunoblotting. Expected positions of SRSFs that are not detected are shown in gray. Quantification of SRSF phosphorylation (Right). Data represented as mean ± SEM (n = 4). […] Neuro 2a is a control for exon 16b exclusion in differentiated cells (Bottom). Data represented as mean ± SEM (n = 3). […] Exon 16 inclusion: (^∗∗∗∗) p < 0.0001, Exon 16b inclusion: (^∗) p = 0.0164, p = 0.0485, and p = 0.0489 (left to right). Ratio exon 16b/16: (^∗∗∗∗) p < 0.0001, (^∗∗∗) p = 0.0003. (C) SRPK substrates predicted using ScanProsite and grouped according to UniProt functions. (D) RNF12 phosphorylation sites detected by mass-spectrometry. LZL, leucine-zipper like; NLS, nuclear localization signal; NES, nuclear export signal; RING, RING E3 ubiquitin ligase catalytic domain. (E) CMGC family kinase copy numbers in mESCs determined by quantitative proteomics and represented using Kinoviewer. (F) CMGC kinase (200 mU) phosphorylation of the RNF12 SR-motif in vitro was determined by immunoblotting for RNF12 phospho-Ser214 and total RNF12. […] Normalized RNF12 Ser214 phosphorylation is shown below. Data represented as mean ± SEM (n = 3). […] RNF12 SR-motif phosphorylation was analyzed by immunoblotting for RNF12 phospho-Ser214 and RNF12. SRPK1 and SRPK2 levels are shown as a loading control, Related to Figure S1; Tables S1 and S2.
Total RNA extraction and reverse transcription was performed as described. Quantitative PCR reactions using SsoFast EvaGreen Supermix (Bio-Rad) were performed in a CFX384 real time PCR system (Bio-Rad). Relative RNA expression was calculated through the ΔΔCt method and normalised to Gapdh expression. Data was analysed in Excel (Microsoft) and statistical analysis performed in GraphPad Prism v7.0c software (GraphPad Software Inc.).

[2] = target: 50 representative kinases; assay: Kinase inhibitor profiling, in vitro kinase assays for 50 representative kinases; type: biochemical; conditions: 1 μM, SRPK1 compared with 49 other kinases
Protocol: Kinase activity towards specific peptides was assessed in comparison to DMSO control. Full details are available at http://www.kinase-screen.mrc.ac.uk/services/express-screen.
Supplemental Figure Legends
Figure S1. Differential inhibitor sensitivities and expression profiles of SRPK kinases (Related to Figure 1). (A) Wild-type (WT) mESCs were analysed for protein copy number by absolute quantitative proteomics. SRPK1, SRPK2 and SRPK3 protein copy numbers are shown.
Data are represented as mean ± S.E.M. (n=3). Unpaired Student’s t test, two-sided, confidence level 95%. (****) P<0.0001. ND = not detected. (B) Inhibition of RNF12 phosphorylation in vitro by SRPK1 and SRPK2 in the presence of varying concentrations of the indicated SRPK inhibitors was determined by immunoblotting for RNF12 phospho-Ser214 (Left). RNF12 levels are shown as a control. Immunoblots were quantified to generate SRPK inhibitor dose-response curves for inhibition of RNF12 phosphorylation by SRPK1 and SRPK2 in vitro (Right). (C) WT, Srpk1-/- and Srpk2-/- mESCs were cultured and SRPK protein expression was analysed via immunoblotting. […]
SR-motif phosphorylation of HA-immunoprecipitated RNF12 analysed by phos-tag immunoblotting. […]
(DYRK1A inhibitor), WEHI-345 (RIPK2 inhibitor), IRAK-4-Inhibitor-a (IRAK4 inhibitor) and GSK-461364 (PLK1/2 inhibitor) for 4 h, and RNF12 phosphorylation analysed via phos-tag immunoblotting. […]

CCc1cc2c(cc1-c1cccc(S(=O)(=O)F)c1)C(C)(C)c1[nH]c3cc(C#N)ccc3c1C2=O [SRPKIN-1]
Foxp1 exon 16b-exon 16 inclusion [1]: little effect | kinase inhibition specificity [2]: highly specific
